This is an account of results in patent publication US8476253B2, “Amide derivative” (Daiichi Sankyo Company, Limited, priority 2009, dated 2013).

One test addresses T1, neurokinin NK1 receptor (Cavia porcellus, UniProt P30547).
T1 construct: Using healthy guinea pigs (body weight, 350 to 550 g; Hartley male guinea pigs); from tissue; host or cells: live anaesthetised Hartley male guinea pigs (airway, in vivo)
Nature of the test: Effect of suppressing substance P-induced airway contraction (in vivo, intratracheal administration). Details: species or system guinea pig. The note with it: guinea pig; guinea pigs, intratracheal administration 60 minutes before 20 μg/kg i.v. SP; AUC of increase in airway pressure over 10 minutes; read-out: ID50 (the source's name). In short, it runs like this: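 Anaesthetised, gallamine-paralysed, ventilated male Hartley guinea pigs; compound in 5% glucose given intratracheally 60 min before 20 μg/kg i.v. substance P. Airway-pressure increase AUC over 10 min, inhibition versus vehicle group, expressed as ID50.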

For the next test, the target named is T2, neurokinin NK2 receptor (Cavia porcellus, UniProt Q64077).
T2 construct: Using healthy guinea pigs (body weight, 350 to 550 g; Hartley male guinea pigs); from tissue; host or cells: live anaesthetised Hartley male guinea pigs (airway, in vivo)
T2 sequence (Q64077 1-402): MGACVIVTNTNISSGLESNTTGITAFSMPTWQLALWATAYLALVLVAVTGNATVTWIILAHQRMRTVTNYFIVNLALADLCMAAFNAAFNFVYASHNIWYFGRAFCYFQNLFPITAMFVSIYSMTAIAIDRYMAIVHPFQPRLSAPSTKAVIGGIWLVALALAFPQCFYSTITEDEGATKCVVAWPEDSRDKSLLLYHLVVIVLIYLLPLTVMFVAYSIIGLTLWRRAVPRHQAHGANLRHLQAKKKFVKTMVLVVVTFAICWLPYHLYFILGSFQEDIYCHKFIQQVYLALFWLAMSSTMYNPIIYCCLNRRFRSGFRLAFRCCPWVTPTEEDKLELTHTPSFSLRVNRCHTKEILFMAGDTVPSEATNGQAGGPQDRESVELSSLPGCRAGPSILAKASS
Nature of the test: Effect of suppressing neurokinin A-induced airway contraction (in vivo, intratracheal administration). Details: species or system guinea pig. Particulars: guinea pig; guinea pigs, intratracheal administration 60 minutes before 4 μg/kg i.v. NKA; AUC of increase in airway pressure over 10 minutes; read-out: ID50 (the source's name). The method, then:
Using healthy guinea pigs (body weight, 350 to 550 g; Hartley male guinea pigs), the effect of suppressing airway contraction induced by neurokinin A (NKA), which is an NK2 receptor agonist, was examined by a modified method of Konzett-Roessler (Naunyn-Schmiedebergs Arch. Exp. Pathol. Pharmakol. 195, 71 [1940]) using airway pressure as an indicator.
A tracheal cannula and a venous cannula were attached to a guinea pig anesthetized with pentobarbital (50 mg/mL solution, 0.40 to 0.50 mL/body, subcutaneous administration). An arterial cannula filled with heparin-containing physiological saline (100 U/mL) was further attached, and blood pressure and heart rate were monitored via an amplifier and an instantaneous heart rate meter. Subsequently, gallamine (20 mg/body, intravenous administration) was administered to terminate spontaneous breathing, and 10 mL/kg of positive pressure breathing (Ugo-Basile Biological Research Apparatus, Cat. No. 7025) was rapidly performed at 60 times/min. The airway pressure during artificial breathing was detected with a pressure transducer (TP-200T or TP-400T; Nihon Kohden Corporation) attached to a side branch of the tracheal cannula, amplified (AP-601G; Nihon Kohden Corporation), and recorded in a recorder. After the airway pressure, blood pressure, and heart rate were stabilized, 4 μg/kg of NKA was intravenously administered from the venous cannula to induce airway contraction, and the airway pressure was measured for the following 10 minutes.
The test substance was dissolved in a 5% glucose solution, and a 0.5 mL/kg solution was intratracheally administered with an intratracheal administration apparatus (model 1A-1B; Penn-Century, Inc.) 60 minutes before stimulation with NKA.
The AUC of increase in the airway pressure over 10 minutes after administration of NKA was determined as the intensity of NKA-induced airway contraction and calculated as an ID50 value from the inhibition rate based on the value of the control group (5% glucose solution intratracheal administration group).

Structures can show the parent of a compound that is named as a salt.

T1 sequence (P30547 whole entry): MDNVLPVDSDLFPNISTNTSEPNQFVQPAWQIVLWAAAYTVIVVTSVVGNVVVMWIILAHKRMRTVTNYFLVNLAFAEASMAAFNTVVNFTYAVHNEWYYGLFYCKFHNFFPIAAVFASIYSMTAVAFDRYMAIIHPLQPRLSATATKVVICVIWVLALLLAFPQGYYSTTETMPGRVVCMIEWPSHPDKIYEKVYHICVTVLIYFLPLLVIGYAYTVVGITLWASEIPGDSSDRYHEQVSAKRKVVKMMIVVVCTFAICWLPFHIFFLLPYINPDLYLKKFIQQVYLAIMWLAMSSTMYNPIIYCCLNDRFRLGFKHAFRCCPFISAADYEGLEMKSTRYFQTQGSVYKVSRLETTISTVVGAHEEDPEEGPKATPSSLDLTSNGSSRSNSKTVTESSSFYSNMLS

Consider `CN(CCN1CCC(OC(=O)Nc2ccccc2-c2ccccc2)CC1)C(=O)CCCCCNc1ccc(C(=O)N(C)CCCN(C)C(=O)CO[C@H]2Cc3ccccc3C23CCN(CC[C@@]2(c4ccc(F)cc4)CN(C(=O)c4cc(C(F)(F)F)cc(C(F)(F)F)c4)CO2)CC3)nc1` [Example 9, 1-(2-{[6-({6-[{3-[({[(2S)-1′-{2-[(5R)-3-[3,5-Bis(trifluoromethyl)benzoyl]-5-(4-fluorophenyl)-1,3-oxazolidin-5-yl]ethyl}-2,3-dihydrospiro[indene-1,4′-piperidin]-2-yl]oxy}acetyl)(methyl)amino]propyl}(methyl)carbamoyl]pyridin-3-yl}amino)hexanoyl](methyl)amino}ethyl)piperidin-4-yl biphenyl-2-ylcarbamate], for which the ED50 at neurokinin NK1 receptor is 0.0348 mg/kg; on neurokinin NK2 receptor it was 0.0374 mg/kg.
In the same order, the values of `Cc1cc(NCCCCCC(=O)N(C)CCN2CCC(OC(=O)Nc3ccccc3-c3ccccc3)CC2)ccc1C(=O)N(C)CCCN(C)C(=O)CO[C@H]1Cc2ccccc2C12CCN(CC[C@@]1(c3ccc(F)cc3)CN(C(=O)c3cc(C(F)(F)F)cc(C(F)(F)F)c3)CO1)CC2` [Example 18, 1-(2-{[6-({4-[{3-[({[(2S)-1′-{2-[(5R)-3-[3,5-Bis(trifluoromethyl)benzoyl]-5-(4-fluorophenyl)-1,3-oxazolidin-5-yl]ethyl}-2,3-dihydrospiro[indene-1,4′-piperidin]-2-yl]oxy}acetyl)(methyl)amino]propyl}(methyl)carbamoyl]-3-methylphenyl}amino)hexanoyl](methyl)amino}ethyl)piperidin-4-yl biphenyl-2-ylcarbamate trihydrochloride] are 0.0614 mg/kg and 0.0453 mg/kg.
In the same order, the values of `CN(CCN1CCC(OC(=O)Nc2ccccc2-c2ccccc2)CC1)C(=O)CCCCCNc1ccc(C(=O)N(CCCN(C)C(=O)CO[C@H]2Cc3ccccc3C23CCN(CC[C@@]2(c4ccc(F)cc4)CN(C(=O)c4cc(C(F)(F)F)cc(C(F)(F)F)c4)CO2)CC3)C2CC2)cc1` [Example 25, 1-(2-{[6-({4-[{3-[({[(2S)-1′-{2-[(5R)-3-[3,5-Bis(trifluoromethyl)benzoyl]-5-(4-fluorophenyl)-1,3-oxazolidin-5-yl]ethyl}-2,3-dihydrospiro[indene-1,4′-piperidin]-2-yl]oxy}acetyl)(methyl)amino]propyl}(cyclopropyl)carbamoyl]phenyl}amino)hexanoyl](methyl)amino}ethyl)piperidin-4-yl biphenyl-2-ylcarbamate trihydrochloride] are 0.0437 mg/kg and 0.0727 mg/kg.
Taken in the same sequence, the figures for `CN(CCN1CCC(OC(=O)Nc2ccccc2-c2ccccc2)CC1)C(=O)COCCCNc1ccc(C(=O)N(C)CCCN(C)C(=O)CO[C@H]2Cc3ccccc3C23CCN(CC[C@@]2(c4ccc(F)cc4)CN(C(=O)c4cc(C(F)(F)F)cc(C(F)(F)F)c4)CO2)CC3)cc1` [Example 27, 1-{2-[{[3-({4-[{3-[({[(2S)-1′-{2-[(5R)-3-[3,5-Bis(trifluoromethyl)benzoyl]-5-(4-fluorophenyl)-1,3-oxazolidin-5-yl]ethyl}-2,3-dihydrospiro[indene-1,4′-piperidin]-2-yl]oxy}acetyl)(methyl)amino]propyl}(methyl)carbamoyl]phenyl}amino)propoxy]acetyl}(methyl)amino]ethyl}piperidin-4-yl biphenyl-2-ylcarbamate trihydrochloride] were 0.0229 mg/kg and 0.0135 mg/kg.
With `CN(CCN1CCC(OC(=O)Nc2ccccc2-c2ccccc2)CC1)C(=O)CCCCCNc1ccc(C(=O)N(C)CCN(C)C(=O)CO[C@H]2Cc3ccccc3C23CCN(CC[C@@]2(c4ccc(F)cc4)CN(C(=O)c4cc(C(F)(F)F)cc(C(F)(F)F)c4)CO2)CC3)cc1` [Example 16, 1-(2-{[6-({4-[{2-[({[(2S)-1′-{2-[(5R)-3-[3,5-Bis(trifluoromethyl)benzoyl]-5-(4-fluorophenyl)-1,3-oxazolidin-5-yl]ethyl}-2,3-dihydrospiro[indene-1,4′-piperidin]-2-yl]oxy}acetyl)(methyl)amino]ethyl}(methyl)carbamoyl]phenyl}amino)hexanoyl](methyl)amino}ethyl)piperidin-4-yl biphenyl-2-ylcarbamate trihydrochloride], the ED50 at neurokinin NK1 receptor was 0.016 mg/kg; on neurokinin NK2 receptor it was 0.0286 mg/kg.
In the same order, the values of `CN(CCN1CCC(OC(=O)Nc2ccccc2-c2ccccc2)CC1)C(=O)CCOCCNc1ccc(C(=O)N(C)CCCN(C)C(=O)CO[C@H]2Cc3ccccc3C23CCN(CC[C@@]2(c4ccc(F)cc4)CN(C(=O)c4cc(C(F)(F)F)cc(C(F)(F)F)c4)CO2)CC3)cc1` [Example 29, 1-{2-[{3-[2-({4-[{3-[({[(2S)-1′-{2-[(5R)-3-[3,5-Bis(trifluoromethyl)benzoyl]-5-(4-fluorophenyl)-1,3-oxazolidin-5-yl]ethyl}-2,3-dihydrospiro[indene-1,4′-piperidin]-2-yl]oxy}acetyl)(methy)amino]propyl}(methyl)carbamoyl]phenyl}amino)ethoxy]propanoyl}(methyl)amino]ethyl}piperidin-4-yl biphenyl-2-ylcarbamate trihydrochloride] are 0.0292 mg/kg and 0.0438 mg/kg.
`CN(CCN1CCC(OC(=O)Nc2ccccc2-c2ccccc2)CC1)C(=O)CCCCCNCc1ccc(C(=O)N(C)CCCN(C)C(=O)CO[C@H]2Cc3ccccc3C23CCN(CC[C@@]2(c4ccc(F)cc4)CN(C(=O)c4cc(C(F)(F)F)cc(C(F)(F)F)c4)CO2)CC3)s1` [Example 1, 1-{2-[{6-[({5-[{3-[({[(2S)-1′-{2-[(5R)-3-[3,5-Bis(trifluoromethyl)benzoyl]-5-(4-fluorophenyl)-1,3-oxazolidin-5-yl]ethyl}-2,3-dihydrospiro[indene-1,4′-piperidin]-2-yl]oxy}acetyl)(methyl)amino]propyl}(methyl)carbamoyl]-2-thienyl}methyl)amino]hexanoyl}(methyl)amino]ethyl}piperidin-4-yl biphenyl-2-ylcarbamate]: the ED50 on neurokinin NK1 receptor stood at 0.0147 mg/kg; on neurokinin NK2 receptor, 0.0049 mg/kg.
Turning to `CN(CCN1CCC(OC(=O)Nc2ccccc2-c2ccccc2)CC1)C(=O)CCCCCNc1ccc(C(=O)N2CCCN(C(=O)CO[C@H]3Cc4ccccc4C34CCN(CC[C@@]3(c5ccc(F)cc5)CN(C(=O)c5cc(C(F)(F)F)cc(C(F)(F)F)c5)CO3)CC4)CC2)cc1` [Example 110, 1-{2-[{6-[(4-{[4-({[(2S)-1′-{2-[(5R)-3-[3,5-Bis(trifluoromethyl)benzoyl]-5-(4-fluorophenyl)-1,3-oxazolidin-5-yl)ethyl}-2,3-dihydrospiro[indene-1,4′-piperidin]-2-yl]oxy}acetyl)-1,4-diazepan-1-yl]carbonyl}phenyl)amino]hexanoyl}(methyl)amino]ethyl}piperidin-4-yl biphenyl-2-ylcarbamate trihydrochloride], the ED50 at neurokinin NK1 receptor is 0.0174 mg/kg; on neurokinin NK2 receptor it was 0.0135 mg/kg.
Taken in the same sequence, the figures for `CN(CCN1CCC(OC(=O)Nc2ccccc2-c2ccccc2)CC1)C(=O)CCCNc1ccc(C(=O)N(C)CCCN(C)C(=O)CO[C@H]2Cc3ccccc3C23CCN(CC[C@@]2(c4ccc(F)cc4)CN(C(=O)c4cc(C(F)(F)F)cc(C(F)(F)F)c4)CO2)CC3)cc1` [Example 34, 1-(2-{[4-({4-[{3-[({[(2S)-1′-{2-[(5R)-3-[3,5-Bis(trifluoromethyl)benzoyl]-5-(4-fluorophenyl)-1,3-oxazolidin-5-yl]ethyl}-2,3-dihydrospiro[indene-1,4′-piperidin]-2-yl]oxy}acetyl)(methyl)amino]propyl}(methyl)carbamoyl]phenyl}amino)butanoyl](methyl)amino}ethyl)piperidin-4-yl biphenyl-2-ylcarbamate trihydrochloride] were 0.0308 mg/kg and 0.03 mg/kg.
